Activity calls are given as the source filed them.
Assays:
[1] = target: T1, High affinity choline transporter 1 (Homo sapiens, UniProt Q9GZV3); test: human choline transporter blockers, potency – cell-based, 10-point CRC, membrane potential dye, dose response (AID 588401); type: functional;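 note: membrane potential dye fluorescence of choline-evoked depolarization via CHT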
T1 sequence (Q9GZV3 whole entry): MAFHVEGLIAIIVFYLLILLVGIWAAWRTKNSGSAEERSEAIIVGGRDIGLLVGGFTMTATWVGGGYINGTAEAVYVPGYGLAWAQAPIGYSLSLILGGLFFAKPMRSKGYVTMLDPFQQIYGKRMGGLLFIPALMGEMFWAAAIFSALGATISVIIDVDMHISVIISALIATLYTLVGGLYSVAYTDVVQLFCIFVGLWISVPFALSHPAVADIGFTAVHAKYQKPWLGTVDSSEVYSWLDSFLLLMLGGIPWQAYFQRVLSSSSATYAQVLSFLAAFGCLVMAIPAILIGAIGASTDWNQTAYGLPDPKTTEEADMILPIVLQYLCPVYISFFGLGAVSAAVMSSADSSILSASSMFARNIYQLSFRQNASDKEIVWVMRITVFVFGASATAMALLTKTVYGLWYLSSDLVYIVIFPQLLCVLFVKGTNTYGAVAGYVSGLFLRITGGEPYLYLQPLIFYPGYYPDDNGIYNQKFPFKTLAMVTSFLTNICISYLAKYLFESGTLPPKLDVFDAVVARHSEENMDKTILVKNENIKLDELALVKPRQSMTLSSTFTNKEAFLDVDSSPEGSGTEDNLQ

Galanin receptor type 3 = target: T2, Galanin receptor type 3 (Homo sapiens, UniProt O60755); test: Fluorescence-based cell-based primary high throughput dose response assay to identify antagonists of the Galanin Receptor 3 (GalR3).; type: functional
T2 sequence (O60755 whole entry): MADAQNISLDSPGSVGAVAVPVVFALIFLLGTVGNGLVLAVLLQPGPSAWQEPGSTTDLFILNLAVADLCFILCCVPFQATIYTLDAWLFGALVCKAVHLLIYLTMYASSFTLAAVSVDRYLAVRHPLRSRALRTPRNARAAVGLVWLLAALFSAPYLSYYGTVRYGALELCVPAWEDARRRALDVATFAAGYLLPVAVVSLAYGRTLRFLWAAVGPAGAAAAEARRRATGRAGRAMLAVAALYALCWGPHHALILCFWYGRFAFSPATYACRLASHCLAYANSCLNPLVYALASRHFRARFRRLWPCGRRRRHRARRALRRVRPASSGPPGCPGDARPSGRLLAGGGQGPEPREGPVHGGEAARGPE

cells = type: functional, cell-based; settings: HEK-CNG
[2] = target: T1, High affinity choline transporter 1; test: human choline transporter blockers, potency – cell-based, 5-point CRC, membrane potential dye, dose response (AID 504840); type: functional
[3] = target: T3, Neuropeptides B/W receptor type 1 (Homo sapiens, UniProt P48145); test: human NPBW1 receptor blockade, IC50 – cell-based, fluorescence, dose response, set 5, late-stage follow-up (AID 588566); type: functional
T3 sequence (P48145 whole entry): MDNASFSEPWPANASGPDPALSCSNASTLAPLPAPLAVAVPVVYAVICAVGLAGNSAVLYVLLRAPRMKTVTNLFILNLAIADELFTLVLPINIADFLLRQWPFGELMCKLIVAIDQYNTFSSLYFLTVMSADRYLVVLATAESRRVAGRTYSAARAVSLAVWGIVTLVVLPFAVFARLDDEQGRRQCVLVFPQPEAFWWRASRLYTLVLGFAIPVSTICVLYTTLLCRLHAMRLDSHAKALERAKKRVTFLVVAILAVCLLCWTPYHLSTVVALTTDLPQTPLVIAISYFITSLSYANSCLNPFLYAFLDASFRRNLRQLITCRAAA

[4] = target: Melanin-concentrating hormone receptor 1 (Homo sapiens, UniProt Q99705); test: Late-stage fluorescence-based counterscreen for antagonists of the G-protein coupled receptor 7 (GPR7): cell-based dose response assay to identify antagonists of the melanin-concentrating hormone receptor 1 (MCHR1) Set 5.; type: functional
Sequence of Melanin-concentrating hormone receptor 1 (Q99705 whole entry): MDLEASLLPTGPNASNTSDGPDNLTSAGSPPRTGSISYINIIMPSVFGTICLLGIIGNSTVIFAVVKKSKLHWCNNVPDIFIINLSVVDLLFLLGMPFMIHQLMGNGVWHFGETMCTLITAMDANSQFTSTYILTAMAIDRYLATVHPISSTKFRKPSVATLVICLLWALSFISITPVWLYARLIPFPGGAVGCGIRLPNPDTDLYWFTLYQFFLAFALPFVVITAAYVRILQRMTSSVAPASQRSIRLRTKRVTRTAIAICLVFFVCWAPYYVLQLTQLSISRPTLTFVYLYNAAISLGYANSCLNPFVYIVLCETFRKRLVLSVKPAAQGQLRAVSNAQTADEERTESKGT

[5] = target: Ras and Rab interactor 1/Tyrosine-protein kinase ABL1 (Homo sapiens, UniProt P00519+Q13671); type: functional;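 note: biochemical TR-FRET dose-response test measuring inhibition of binding between Rin1 and Abl proteins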
Sequence of Ras and Rab interactor 1/Tyrosine-protein kinase ABL1 (P00519 whole entry): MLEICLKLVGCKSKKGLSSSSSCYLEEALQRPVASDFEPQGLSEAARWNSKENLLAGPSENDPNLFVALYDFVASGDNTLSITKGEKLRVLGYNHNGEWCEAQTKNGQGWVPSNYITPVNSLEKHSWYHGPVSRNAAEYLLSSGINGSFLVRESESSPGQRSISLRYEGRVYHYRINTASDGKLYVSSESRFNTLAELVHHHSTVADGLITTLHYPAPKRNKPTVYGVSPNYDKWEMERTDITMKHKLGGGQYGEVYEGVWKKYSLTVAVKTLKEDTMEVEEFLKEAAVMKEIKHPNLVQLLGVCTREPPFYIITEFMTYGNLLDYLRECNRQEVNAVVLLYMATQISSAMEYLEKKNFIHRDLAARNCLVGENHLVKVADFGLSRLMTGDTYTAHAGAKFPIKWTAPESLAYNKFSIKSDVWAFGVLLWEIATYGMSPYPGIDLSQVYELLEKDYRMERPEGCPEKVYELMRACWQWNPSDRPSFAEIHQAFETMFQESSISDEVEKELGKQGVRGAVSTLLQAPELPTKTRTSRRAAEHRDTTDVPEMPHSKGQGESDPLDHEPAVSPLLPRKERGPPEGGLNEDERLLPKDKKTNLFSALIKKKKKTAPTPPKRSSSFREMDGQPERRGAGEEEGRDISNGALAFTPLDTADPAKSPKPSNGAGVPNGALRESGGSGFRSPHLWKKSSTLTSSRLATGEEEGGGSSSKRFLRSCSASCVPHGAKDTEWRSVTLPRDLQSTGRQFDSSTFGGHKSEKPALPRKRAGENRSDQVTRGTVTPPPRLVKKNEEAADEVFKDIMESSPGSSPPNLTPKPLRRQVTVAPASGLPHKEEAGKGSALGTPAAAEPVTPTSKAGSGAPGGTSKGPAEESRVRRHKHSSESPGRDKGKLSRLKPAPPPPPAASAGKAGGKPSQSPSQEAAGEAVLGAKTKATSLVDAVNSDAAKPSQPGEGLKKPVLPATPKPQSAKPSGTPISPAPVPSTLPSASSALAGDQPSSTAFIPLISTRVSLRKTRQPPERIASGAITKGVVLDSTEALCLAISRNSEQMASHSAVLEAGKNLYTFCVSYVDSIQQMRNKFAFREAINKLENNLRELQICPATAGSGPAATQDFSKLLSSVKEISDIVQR
Sequence of Ras and Rab interactor 1/Tyrosine-protein kinase ABL1 (Q13671 whole entry): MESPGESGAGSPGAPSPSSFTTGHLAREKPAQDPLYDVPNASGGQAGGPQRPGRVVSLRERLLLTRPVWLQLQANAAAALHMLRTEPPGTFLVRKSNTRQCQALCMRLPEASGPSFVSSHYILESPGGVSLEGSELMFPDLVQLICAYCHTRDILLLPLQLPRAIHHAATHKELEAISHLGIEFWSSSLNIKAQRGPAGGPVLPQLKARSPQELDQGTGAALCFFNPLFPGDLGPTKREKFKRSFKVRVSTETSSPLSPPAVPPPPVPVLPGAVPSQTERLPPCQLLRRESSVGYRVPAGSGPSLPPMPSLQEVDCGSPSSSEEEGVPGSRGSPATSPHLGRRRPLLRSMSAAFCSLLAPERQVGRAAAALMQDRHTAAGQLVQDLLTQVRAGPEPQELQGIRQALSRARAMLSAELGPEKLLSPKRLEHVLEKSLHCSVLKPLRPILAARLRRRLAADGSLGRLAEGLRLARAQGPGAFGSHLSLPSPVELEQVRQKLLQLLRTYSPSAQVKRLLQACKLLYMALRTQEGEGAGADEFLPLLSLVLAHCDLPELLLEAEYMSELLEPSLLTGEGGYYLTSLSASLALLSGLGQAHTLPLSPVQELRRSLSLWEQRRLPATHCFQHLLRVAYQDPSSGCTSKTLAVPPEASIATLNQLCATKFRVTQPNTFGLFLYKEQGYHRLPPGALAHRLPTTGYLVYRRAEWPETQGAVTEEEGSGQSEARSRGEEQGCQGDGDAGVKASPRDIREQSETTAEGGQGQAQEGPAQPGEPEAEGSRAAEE

[6] = target: T4, Apoptotic protease-activating factor 1 (Homo sapiens, UniProt O14727); test: SAR analysis of small molecule Activators of Apaf-1 in a Fluorescent assay.; type: functional; settings: read-out: EC50_Mean;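 note: caspase-3 cleavage of fluorogenic Rh110 DEVD substrate downstream of apoptosome activation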
T4 sequence (O14727 whole entry): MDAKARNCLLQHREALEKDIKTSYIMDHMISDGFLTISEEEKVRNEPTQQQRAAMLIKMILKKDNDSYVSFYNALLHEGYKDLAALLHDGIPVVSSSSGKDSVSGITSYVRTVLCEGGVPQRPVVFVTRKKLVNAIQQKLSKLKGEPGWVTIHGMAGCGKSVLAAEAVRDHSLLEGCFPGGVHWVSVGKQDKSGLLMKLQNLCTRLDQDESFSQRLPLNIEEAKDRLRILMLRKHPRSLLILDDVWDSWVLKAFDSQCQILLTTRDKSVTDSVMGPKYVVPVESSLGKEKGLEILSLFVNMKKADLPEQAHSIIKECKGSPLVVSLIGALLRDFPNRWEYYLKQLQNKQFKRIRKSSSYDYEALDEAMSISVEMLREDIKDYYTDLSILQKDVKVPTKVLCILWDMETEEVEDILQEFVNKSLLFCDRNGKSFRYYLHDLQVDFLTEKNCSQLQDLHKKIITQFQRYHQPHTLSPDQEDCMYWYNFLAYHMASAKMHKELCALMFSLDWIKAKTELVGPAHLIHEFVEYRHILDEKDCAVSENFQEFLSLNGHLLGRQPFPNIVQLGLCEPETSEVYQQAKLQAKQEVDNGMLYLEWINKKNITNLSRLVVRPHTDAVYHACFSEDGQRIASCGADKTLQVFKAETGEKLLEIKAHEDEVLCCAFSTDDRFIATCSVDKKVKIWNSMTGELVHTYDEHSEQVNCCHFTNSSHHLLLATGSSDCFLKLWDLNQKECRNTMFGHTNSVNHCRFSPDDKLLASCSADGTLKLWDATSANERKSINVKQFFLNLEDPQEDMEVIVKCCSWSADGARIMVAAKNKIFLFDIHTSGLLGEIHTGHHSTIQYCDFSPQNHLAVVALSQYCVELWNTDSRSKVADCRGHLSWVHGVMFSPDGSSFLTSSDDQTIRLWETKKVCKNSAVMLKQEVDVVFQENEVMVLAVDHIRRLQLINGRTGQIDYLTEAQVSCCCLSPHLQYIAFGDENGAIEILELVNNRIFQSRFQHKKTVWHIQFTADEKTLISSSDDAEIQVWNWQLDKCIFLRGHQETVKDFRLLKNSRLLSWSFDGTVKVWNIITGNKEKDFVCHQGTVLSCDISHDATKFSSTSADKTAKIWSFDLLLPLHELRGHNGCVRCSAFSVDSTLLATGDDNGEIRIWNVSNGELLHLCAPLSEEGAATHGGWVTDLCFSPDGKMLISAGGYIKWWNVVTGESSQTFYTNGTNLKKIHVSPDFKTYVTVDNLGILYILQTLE

For `COc1ccc(C2=NN(c3nc(C(=O)O)cs3)C(O)(C(F)(F)F)C2)c(OC)c1` (stereo not given), the IC50 [1] was 4.74 µM (active), the IC50 (Galanin receptor type 3) was 10 µM (inactive) and the EC50 (cells) was > 29.9 µM (inactive). For the same molecule, the IC50 [2] was 7.18 µM (active).

For `O=C(C1CCCCN1Cc1c2ccccc2cc2ccccc12)N1CCN(c2ccc([N+](=O)[O-])cc2)CC1` (stereo not given), the IC50 [3] was > 20 µM (inactive) and the IC50 [4] was > 20 µM (inactive).

With `Cc1cc(C)c(NC(=O)c2ccc[n+](Cc3ccc([N+](=O)[O-])cc3)c2)c(C)c1` the IC50 [1] was 1.5 µM (active) and the IC50 [2] was 3.67 µM (active).

With `CC(OC(=O)c1ccccc1NCCO)C(=O)Nc1ccnn1C(C)C` (stereo not given) the IC50 [5] was 3.98 µM (active).

For `O=C(O)CC(CCc1ccccc1)NC(=O)c1ccco1` (stereo not given), the EC50 [6] was > 100 µM (inactive).

— ChEMBL document CHEMBL1201862, “PubChem BioAssay data set” (2004)
